This note sets out measurements from patent publication US8551997B2, “Structural-based inhibitors of the glutathione binding site in aldose reductase, methods of screening therefor and methods of use” (The Board of Regents of the University of Texas System, priority 2004, dated 2013).

In assay [1] the test system is Caco-2 cells. The experiment in a line: PGE2 assay in Caco-2 cells. The assay is classed as cell-based, human. The protocol: Caco-2 cells were plated in 6 well plates at a density of 2×10^5 cells/well. After 24 hours, the medium was replaced with fresh medium containing 0.1% serum with or without, sorbinil (20 μM) followed by treatment with either 10 ng/ml BFGF or PDGF, for another 24 h. HT29 cells were plated in 6 well plate at a density of 2×10^5 cells/well. After 24 hours, medium was replaced with serum-free medium with or without, sorbinil or zopolrestat (20 μM) followed by treatment with either EGF (5 ng/ml) or BFGF (10 ng/ml) for another 24 h. The medium from each cell lines was collected from each well and analyzed for PGE2 by using an Enzyme Immuno Assay kit according to the manufacturer's instructions (Cayman Chemical Co., Inc.).
Briefly, 50 μl of diluted standard/sample were pipetted into a pre-coated goat polyclonal anti-mouse IgG 96-well plate. Aliquots (50 μl) of a PGE2 monoclonal antibody and PGE2 acetylcholine esterase (AchE) conjugate, (PGE2 tracer) were added to each well and allowed to incubate at 4° C. for 24 h. After incubation, the wells were washed five times with wash buffer containing 0.05% Tween-20, followed by the addition of 200 μl of Ellman's reagent containing acetylthiocholine and 5,5′-dithio-bis-(2-nitrobenzoic acid). Samples were read after 60 min at 412 nm with an ELISA reader. In this procedure the intensity of yellow color, is proportional to the amount of PGE2 tracer bound to the well and is inversely proportional to the amount of free PGE2 present in the well during incubation.

Assay [2] relates to A549 cells. Put plainly: Western blot of cell cycle regulatory proteins in A549 cells. The settings on record: various concentrations. Type of assay: cell-based, human. Here is the method: To examine expression of any of Cox-1, Cox-2, phospho-PKC-2, GAPDH, E2F1, Cyclin D1, Cyclin E, and iNOS proteins, Western blot analyses were carried by known methods (15). Equal amounts of protein from cell extracts were subjected to 12% SDS-PAGE followed by transfer of proteins to nitrocellulose filters, probing with the indicated antibodies, and the antigen-antibody complex was detected by enhanced chemiluminescence (Pierce, Piscataway, N.J., USA).

Assay [3] has as its system BALB/C mice. The experiment in a line: Azoxymethane-induced colon carcinogenesis, ACF analysis. The assay is classed as in vivo, mouse. The settings on record: 9 weeks. Here is the method:
Approximately six weeks old mice were divided into 4 groups (5 mice/group). Mice in groups 3 and 4 were treated with azoxymethane in sterile saline, at a dose of 10 mg/kg body weight i.p. once a week, for 3 weeks. In group 4, mice were treated with AR inhibitor sorbinil (25 mg/kg body weight per day) for entire period after 1 week from the first azoxymethane injection. Mice in groups 1 and 2 received equal volumes of sterile saline and sorbinil, respectively. Similarly AR knock out mice also were treated with azoxymethane (10 mg/kg body weight i.p.) once a week for 3 weeks. After 9 weeks all mice were killed by CO2 euthanasia. The colons were removed, flushed with saline and opened from anus to cecum and fixed flat between two pieces of filter paper in 10% buffered formalin for 24 h. Colons were stained with 0.2% methylene blue dissolved in saline and the numbers of aberrant crypts foci (ACF) were counted under a microscope at 200× magnification.
BALB/C mice were injected with azoxymethane or saline and treated with and with out AR inhibitor, sorbinil as described in Example 2. At the early preneoplastic stage (9 weeks after first azoxymethane injection), mice were sacrificed and their colons were removed and analyzed microscopically for the presence of ACF. […]

“(S)-6-fluorospiro[chroman-4,4′-imidazolidine]-2,5′-dione [sorbinil]”: in assay [1] (sorbinil 20 μM, 10 ng/ml BFGF or PDGF, 24 h), the “prevention of PGE2 production induced by BFGF and PDGF” value is over 90%. Also, in assay [1] (sorbinil 24 h, GS-DHN-ester 24 h), the “GS-DHN-induced PGE2 production” value was “had no effect”. Also, in assay [1] (sorbinil 24 h, aldehydes 24 h), the “HNE and GS-HNE-induced PGE2 production” value is recorded as “significantly prevented”. Also, the “constitutive levels of PGE2” value in assay [1] (sorbinil alone) is on record as “did not inhibit”. Further, the “E2F-1, Cyclin E and Cyclin D1 expression” value in assay [2] is on record as “significant inhibition”. Besides, the “azoxymethane-induced Cox-2 and iNOS expression in mice colons” value in assay [3] is on record as “inhibits”. The “number of average ACF/colon” value in assay [3] (azoxymethane+sorbinil 25 mg/kg body weight per day) worked out at 2.4±0.5.
